Literature values in patent publication EP4570255A1, “SPORICIDAL ANTIMICROBIAL COMPOSITIONS AND USES THEREOF” (Silva, Renata Moisés Iwamizu, priority 2022, dated 2024).
Where a name gives a salt, the structure may show the parent alone.

solubility in water	Compound
about 1.8%	[H]/N=C(\N/C(=N/[H])NCCCCCCNC(=N)NC(=N)Nc1ccc(Cl)cc1)Nc1ccc(Cl)cc1 [diacetate salt, 1,1'-hexamethylene-bis-(5-(p-chlorophenyl)biguanide)]
about 70%	[H]/N=C(\N/C(=N/[H])NCCCCCCNC(=N)NC(=N)Nc1ccc(Cl)cc1)Nc1ccc(Cl)cc1 [digluconate salt, 1,1'-hexamethylene-bis-(5-(p-chlorophenyl)biguanide)]
